Results reported in patent US20240190872A1, “FABI INHIBITORS FOR GRAM-NEGATIVE PATHOGENS” (THE BOARD OF TRUSTEES OF THE UNIVERSITY OF ILLINOIS, priority 2021, published 2024).
In brackets after ≈: the same amount, converted by molar mass. Like-named read-outs stand apart in the source and are kept apart here.

Experiments:
[1] = system: carbapenem resistant E. coli; assay: MIC against infecting strain of the UTI model; type: cell-based; settings: Escherichia coli; extensively resistant carbapenem resistant E. coli of UTI model
Experimental: (§1) UTIs represent one of the biggest risks for healthy individuals in terms of exposure to antibiotic-resistant bacteria and many individuals contract one in their lifetime (roughly 1 in 2 women and 1 in 10 men); as such, these infections from Gram-negative pathogens, particularly those that are drug-resistant, remain a major clinical challenge. As E. coli is the causative agent in the great majority of UTIs fabimycin was evaluated in a murine UTI model with a challenging, extensively resistant strain of carbapenem resistant E. coli (fabimycin MIC=2 μg/mL). When dosed at 33.3 mg/kg, TID fabimycin was able to achieve 3.0, 2.8, 2.9, and 1.9 log10 reductions in bacterial load relative to the vehicle in the spleen, bladder, liver, and kidneys tissues, respectively (FIG. 4).

A. baumannii FabI = A. baumannii FabI (Acinetobacter baumannii, UniProt D0CAD5); assay: biochemical
[2] = system: E. coli MG1655 FabI mutant; assay: MIC against fabimycin-resistant E. coli MG1655 colonies (FabI mutants); type: cell-based; settings: Escherichia coli
Experimental: Selection of resistant mutants. Resistant mutants were selected via the large inoculum method. Briefly, E. coli MG1655 (1.8×10^9 CFU) were plated on 100 mm plates of LB agar containing 64, 32, and 16 μg/mL Debio-1452-NH3. […] Resistant colonies were confirmed by streaking on selective media with the same concentration of Debio-1452-NH3.

in vivo = settings: female, C57BL/6, mouse, in vivo
Experimental: Mouse MTD of Debio-1452-NH3. The protocol was approved by the IACUC at the University of Illinois at Urbana-Champaign (Protocol Number:16144). In these studies, 10- to 12-week-old female C57BL/6 mice purchased from Charles River were used. The maximum tolerate dose (MTD) of single compound was determined first. Debio-1452 amine analogues were formulated in 20% sulfobutyl ether β-cyclodextrin in sterile water. Debio-1452-NH3 (1), and compounds 2 and 3 were given by IP injection and mice were monitored for signs of toxicity for 2 weeks (single dose). For multiple dose, the compound was given by daily IP for 5 consecutive days and mice were monitored for signs of toxicity for 1 month. MTD was the highest dosage with acceptable toxicity (e.g. <20% weight loss). Single dose MTDs were initially determined. […] The MTD of Debio-1452-NH3 (1) was used to inform the dosing schedule used in subsequent efficacy studies.

E. coli AR-55 = assay: Murine urinary tract infection (UTI) model; type: in vivo, C3H/HeJ mice; settings: TID
Experimental: FIG. 4. In-vivo efficacy of fabimycin in a murine UTI. After inducing diuresis, infection initiated in C3H/HeJ mice (8 per arm, 1.38×10^9 CFU/mouse transurethral) with E. coli AR-55 and treated with fabimycin at varying concentrations three times daily with bacterial enumeration at 168 h post-infection. Percentage in parenthesis indicates the percentage of animals with bacterial counts below the limit of detection (LOD).
as §1
Chart 1. Summary of Fabimycin in vivo models. Log reductions are relative to the vehicle. • S. aureus • Neutropenic thigh infection w/S. aureus USA300 LAC • 5 mg/kg, r.o. • 26 h, 2.6 log reduction • A. baumannii • Neutropenic thigh infection w/A. baumannii AR-0299 • 50 mg/kg, intramuscular (2, 6, and 11 h post-infection) • 26 h, 2.3 log reduction • Acute lung infection w/A. baumannii AR-0299 • 50 mg/kg, intramuscular (QD) • 48 h, 3.9 log reduction • Neutropenic thigh infection w/A. baumannii AR-0088 • 75 mg/kg IV, QID • 26 h, 1.75 log reduction • E. coli • Urinary tract infection w/E. coli AR-0055 • 33.3 mg/kg IV, TID (100 mg/kg a day) • 168 h post-infection • Bladder—2.78 log reduction • Liver—2.85 log reduction • Spleen—3.04 log reduction • Kidneys—1.85 log reduction • Urine—2.32 log reduction

in vitro = settings: mouse, plasma, Plasma stability, t1/2, Mouse
CYP 2C19 = CYP 2C19 (Homo sapiens (Human), UniProt P33261); assay: biochemical
[3] = 33.3 mg/kg IV, 168 h post-infection

Sequence of A. baumannii FabI (D0CAD5 1-288): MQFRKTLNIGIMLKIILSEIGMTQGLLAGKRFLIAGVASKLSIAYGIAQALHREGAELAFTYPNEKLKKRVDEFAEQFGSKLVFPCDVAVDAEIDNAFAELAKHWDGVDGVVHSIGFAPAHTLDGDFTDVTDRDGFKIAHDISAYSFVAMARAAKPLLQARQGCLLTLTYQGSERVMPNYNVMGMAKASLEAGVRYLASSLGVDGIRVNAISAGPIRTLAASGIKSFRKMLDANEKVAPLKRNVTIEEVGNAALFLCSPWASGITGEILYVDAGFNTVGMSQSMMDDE
Sequence of CYP 2C19 (P33261 whole entry): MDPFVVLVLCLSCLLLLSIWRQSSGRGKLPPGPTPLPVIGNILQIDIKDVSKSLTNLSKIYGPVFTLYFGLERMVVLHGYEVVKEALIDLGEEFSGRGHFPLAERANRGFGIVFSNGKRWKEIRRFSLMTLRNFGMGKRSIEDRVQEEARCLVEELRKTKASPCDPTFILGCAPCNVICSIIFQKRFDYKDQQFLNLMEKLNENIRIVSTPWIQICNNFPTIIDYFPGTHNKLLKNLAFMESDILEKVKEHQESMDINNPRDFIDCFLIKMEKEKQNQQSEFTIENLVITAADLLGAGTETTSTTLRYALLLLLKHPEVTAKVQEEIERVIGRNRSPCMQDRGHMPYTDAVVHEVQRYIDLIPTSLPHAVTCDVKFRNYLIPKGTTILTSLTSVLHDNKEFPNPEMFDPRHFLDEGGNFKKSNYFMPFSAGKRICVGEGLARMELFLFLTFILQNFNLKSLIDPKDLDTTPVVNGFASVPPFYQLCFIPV

Cc1c(CN(C)C(=O)/C=C/c2cnc3c(c2)CC[C@H](N)C(=O)N3)oc2ccccc12 [(S)-11, (S,E)-3-(7-amino-8-oxo-6,7,8,9-tetrahydro-5H-pyrido[2,3-b]azepin-3-yl)-N-methyl-N-((3-methylbenzofuran-2-yl)methyl)acrylamide]
MIC [1]: 2 µg/mL (≈ 4.94 µM) | fold change in Ki^app relative to Debio-1452-NH3 (A. baumannii FabI; A. baumannii FabI, 3 vs. 114 nM): > 30 fold | Ki (A. baumannii FabI; purified FabI, apparent inhibition constant, read-out: A. baumannii FabI Ki^app): 0.003 µM | fold more potent than (R)-11 against A. baumannii FabI (A. baumannii FabI; relative to opposite enantiomer (R)-11): ~30 fold | MIC ([2]; MG1655, read-out: MIC, FabI mutant G148A): 64 to 128 µg/mL (≈ 158 to 316 µM) | MIC ([2]; MG1655, read-out: MIC, FabI mutant H209P): 61 to 128 µg/mL (≈ 151 to 316 µM) | MTD at 5 d (in vivo): 200 mg/kg | log reduction relative to the vehicle, Bladder (E. coli AR-55; [3]): 2.78 log | log reduction relative to the vehicle, Kidneys (E. coli AR-55; [3]): 1.85 log | log reduction relative to the vehicle, Liver (E. coli AR-55; [3]): 2.85 log | log reduction relative to the vehicle, Spleen (E. coli AR-55; [3]): 3.04 log | log reduction relative to the vehicle, Urine (E. coli AR-55; [3]): 2.32 log | log10 reduction in bacterial load relative to the vehicle, bladder (E. coli AR-55; 33.3 mg/kg): 2.8 log10 | log10 reduction in bacterial load relative to the vehicle, kidneys (E. coli AR-55; 33.3 mg/kg): 1.9 log10 | log10 reduction in bacterial load relative to the vehicle, liver (E. coli AR-55; 33.3 mg/kg): 2.9 log10 | log10 reduction in bacterial load relative to the vehicle, spleen (E. coli AR-55; 33.3 mg/kg): 3.0 log10 | half-life (in vitro): 1.38 h | IC50 (CYP 2C19): 60 µM | stability in human plasma (in words) (Plasma stability): excellent stability | Plasma protein binding, Mouse (Plasma protein binding; Mouse): 96% | fraction unbound (Plasma protein binding; mouse, plasma): 0.04
